Test results as given in the supplement of paper PMC10307832.

How the values were obtained:
Experiment in all cases: relative viability (nuclei count vs DMSO), 5 days (fraction); higher = more cells survive
[1] = compound: COc1cc(-c2nn([C@H]3CC[C@H](N4CCN(C(C)=O)CC4)CC3)c3ncnc(N)c23)ccc1NC(=O)c1cc2ccccc2n1C + Nc1ncn([C@H]2C[C@H](O)[C@@H](CO)O2)c(=O)n1 [Decitabine] (partner 2 µM)
Procedure, shortened: (§1)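 Relative viability equals treated-well nuclei counts divided by vehicle-well nuclei counts. Counts came from 4× images of lung cancer cell lines grown in 1536-well plates for 5 days after pin-tool dosing on the day after seeding. Dosing used one drug alone or a fixed anchor-drug dose plus five library-drug doses (not always all listed) in √10 steps, and values are medians of duplicate plates.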

Midostaurin + Decitabine = compound: CO[C@@H]1[C@H](N(C)C(=O)c2ccccc2)C[C@H]2O[C@]1(C)n1c3ccccc3c3c4c(c5c6ccccc6n2c5c31)C(=O)NC4 [Midostaurin] + Nc1ncn([C@H]2C[C@H](O)[C@@H](CO)O2)c(=O)n1 [Decitabine] (partner 2 µM)
Procedure, shortened: as §1

[2] = compound: COc1cc(-c2nn([C@H]3CC[C@H](N4CCN(C(C)=O)CC4)CC3)c3ncnc(N)c23)ccc1NC(=O)c1cc2ccccc2n1C + CC1(C)CCC(c2ccc(Cl)cc2)=C(CN2CCN(c3ccc(C(=O)NS(=O)(=O)c4ccc(N[C@H](CCN5CCOCC5)CSc5ccccc5)c(S(=O)(=O)C(F)(F)F)c4)cc3)CC2)C1 [Navitoclax] (partner 0.5 µM)
Procedure, shortened: as §1

Midostaurin + Foretinib = compound: CO[C@@H]1[C@H](N(C)C(=O)c2ccccc2)C[C@H]2O[C@]1(C)n1c3ccccc3c3c4c(c5c6ccccc6n2c5c31)C(=O)NC4 [Midostaurin] + COc1cc2c(Oc3ccc(NC(=O)C4(C(=O)Nc5ccc(F)cc5)CC4)cc3F)ccnc2cc1OCCCN1CCOCC1 [Foretinib] (partner 0.25 µM)
Procedure, shortened: as §1

Midostaurin + Lapatinib = compound: CO[C@@H]1[C@H](N(C)C(=O)c2ccccc2)C[C@H]2O[C@]1(C)n1c3ccccc3c3c4c(c5c6ccccc6n2c5c31)C(=O)NC4 [Midostaurin] + CS(=O)(=O)CCNCc1ccc(-c2ccc3ncnc(Nc4ccc(OCc5cccc(F)c5)c(Cl)c4)c3c2)o1 [Lapatinib] (partner 2 µM)
Procedure, shortened: as §1

Cell Line	relative viability ([1]; first compound 0.0128 µM)	relative viability ([1]; first compound 0.04048 µM)	relative viability ([1]; first compound 0.128 µM)	relative viability ([1]; first compound 1.28 µM)	relative viability (Midostaurin + Decitabine; first compound 0.01 µM)	relative viability (Midostaurin + Decitabine; first compound 0.03162 µM)	relative viability (Midostaurin + Decitabine; first compound 0.1 µM)	relative viability (Midostaurin + Decitabine; first compound 0.3162 µM)	relative viability ([2]; first compound 0.0128 µM)	relative viability ([2]; first compound 0.04048 µM)	relative viability ([2]; first compound 0.128 µM)	relative viability ([2]; first compound 1.28 µM)	relative viability (Midostaurin + Foretinib; first compound 0.01 µM)	relative viability (Midostaurin + Foretinib; first compound 0.03162 µM)	relative viability (Midostaurin + Foretinib; first compound 0.1 µM)	relative viability (Midostaurin + Foretinib; first compound 0.3162 µM)	relative viability (Midostaurin + Lapatinib; first compound 0.01 µM)	relative viability (Midostaurin + Lapatinib; first compound 0.03162 µM)	relative viability (Midostaurin + Lapatinib; first compound 0.1 µM)	relative viability (Midostaurin + Lapatinib; first compound 0.3162 µM)
HCC-15	0.822	0.589	0.638	0.567	0.657	0.669	0.614	0.585	0.755	0.59	0.672	0.454	1.08	0.856	1.04	1.05	0.85	0.776	0.692	0.921
HCC-44	1.13	0.979	0.846	1.04	0.899	0.972	0.989	0.997	1.13	0.913	1.02	0.934	–	–	–	–	1.01	0.985	1.04	1.13
HCC-78	0.674	0.689	0.701	0.539	0.651	0.676	0.613	0.72	0.947	0.901	0.87	0.621	0.65	0.532	0.541	0.555	0.805	0.697	0.721	0.316
HCC-366	0.379	0.344	0.351	0.306	0.383	0.364	0.325	0.298	1.09	1	1.05	0.821	0.932	0.957	0.81	0.75	1.01	1.04	1.04	1.13
HCC-827	0.336	0.318	0.357	0.29	0.303	0.318	0.356	0.349	1.01	1.06	1.1	1.04	0.98	1.04	1.01	1.05	0.198	0.225	0.204	0.225
HOP-62	0.241	0.191	0.207	0.283	0.203	0.25	0.246	0.227	1.06	1.18	0.825	1.1	1.14	1.04	1.16	1.2	1.02	0.994	1.14	1.06
IA-LM	–	–	–	–	–	–	–	–	0.87	1.08	0.87	0.968	1.15	0.86	1.23	1.05	0.886	0.579	0.984	0.551
LCLC-103H	0.832	0.725	0.691	0.759	0.712	0.742	0.752	0.757	–	–	–	–	0.729	0.661	0.656	0.791	–	–	–	–
NCI-H358	0.224	0.206	0.246	0.167	0.228	0.236	0.231	0.25	–	–	–	–	0.821	0.784	0.706	0.662	0.582	0.391	0.584	0.499
NCI-H441	0.246	0.286	0.321	0.24	0.249	0.237	0.221	0.23	0.868	0.798	0.91	0.581	0.808	0.848	0.858	0.693	–	–	–	–
NCI-H522	0.665	0.7	0.738	0.717	0.584	0.638	0.822	0.525	–	–	–	–	–	–	–	–	–	–	–	–
NCI-H650	0.319	0.35	0.304	0.306	0.339	0.311	0.321	0.334	–	–	–	–	0.959	0.95	1.01	0.767	0.838	0.988	0.582	0.687
NCI-H661	0.513	0.532	0.511	0.509	0.622	0.611	0.598	0.596	–	–	–	–	0.903	0.847	1.02	1.04	0.389	0.449	0.411	0.384
NCI-H1299	–	–	–	–	–	–	–	–	1.06	1.15	1.08	1.13	1.07	1.04	1.05	0.976	0.959	0.93	0.871	0.883
NCI-H1563	–	–	–	–	–	–	–	–	–	–	–	–	0.985	0.976	0.847	0.785	0.929	0.97	0.77	0.924
NCI-H1648	0.595	0.447	0.482	0.452	0.499	–	–	0.446	–	–	–	–	–	–	–	–	–	–	–	–
NCI-H1703	–	–	–	–	–	–	–	–	1.45	1.17	0.736	0.236	0.351	0.316	0.292	0.325	1.04	1.08	1.1	0.317
NCI-H1792	0.566	0.504	0.532	0.598	0.555	0.515	0.529	0.431	0.611	0.499	0.609	0.624	–	–	–	–	0.932	0.875	0.862	0.91
NCI-H2228	–	–	–	–	–	–	–	–	0.825	1.17	0.91	0.745	0.922	0.85	1.08	0.905	0.966	1.07	1.23	0.972
NCI-H2342	0.812	0.783	0.777	0.609	0.73	0.787	0.716	0.827	–	–	–	–	1.03	0.933	0.961	0.92	–	–	–	–
SW 900	0.524	0.381	0.507	0.52	0.407	0.491	0.439	0.433	–	–	–	–	0.876	0.746	0.822	0.763	–	–	–	–
